Data as given in US20100015071A1, “Compositions for Improving Skin Conditions Comprising Alpha-Bisabolol as an Active Ingredient” (Biospectrum Inc., priority 2007, published 2010).
Each block holds one compound with its values, some of them ahead of it.

How the values were obtained:
B16 mouse melanoma cells [1] = assay: Inhibition of melanin production in B16 mouse melanoma cells; assay type: cell-based; details: 72 h, B16 F10 cells, 3 days, read-out: Inhibitory rate of melanin production (%)
Experimental: This cell pellets were dried at 60° C., 100 μl of 1M NaOH containing 10% DMSO was added to thereto, and intracellular melanin was obtained in incubator at 60° C.

brown guinea pigs = assay: Skin whitening effect in UV-pigmented brown guinea pigs; assay type: in vivo, guinea pig; details: for Whitening effects (ΔL): once or twice a day for 50 days, control ΔL 0.35
Experimental: A skin whitening effect of α-bisabolol was measured using brown guinea pigs (Charles River Laboratories, Inc.) pigmentation of which is known to increase upon exposure to ultraviolet light like human.
To induce pigmentation in the brown guinea pig by ultraviolet (UV), aluminum foil with square windows of 3×3 cm^2 was adhered to hair-removed abdominal skin of brown guinea pig, and then UV light was irradiated thereon with a SE lamp (wavelength 290-320 nm, Toshiba) (total irradiation energy=1350 mJ/cm^2). After UV irradiation, the aluminum foil was removed and samples (α-bisabolol or arbutin) were applied as the following method. Increased pigmentation was observed on 2-3 days after UV irradiation and reached a maximum after about 2 weeks. Following the period of time showing the maximum pigmentation, samples were applied.
The application of samples was performed once or twice a day for 50 days. The samples were dissolved or diluted in a solvent (Propylene glycol:ethanol:water 5:3:2) and applied by a swab. The control with only the solvent was applied to another site. The occurrence of cumulative irritation was also examined.
The degree of pigmentation of skin was determined using a chromameter (CR2002, MINOLTA, JP) to estimate the effects of applied samples. La*b* calorimetric system was used to classify color and L* value was used as standard in Example. The L* value was corrected using white board standard and was measured more than five times at one site. Pigmentation was evenly distributed. Skin color differences (ΔL*) between application starting point and application end point were obtained and used to evaluate effects of samples.
ΔL*=L* value on […] after application−L* value on application starting day Equation 1
ΔL* values were obtained for control and sample application to evaluate skin whitening effects.

[2] = Anti-oxidation: removal of superoxide anion (SOD Assay Kit-WST); assay type: biochemical
Experimental: Superoxide dismutase (SOD) has been known as an anti-oxidation-catalyzing enzyme which converts superoxide anion into H2O2 and O2. This experiment evaluates anti-oxidation activity of samples by observing removal of superoxide anion generated by xanthine oxidase. The experiment was performed using the kit (SOD Assay Kit-WST) purchased from Dojindo (JP) in accordance with manufacture's protocol.

COX (cyclooxygenase) = assay: COX inhibitory ability in LPS-treated THP-1 cells; assay type: cell-based, human; details: LPS alone = 100
Experimental: To determine whether α-bisabolol had anti-inflammatory effects, the experiment of COX (cyclooxygenase) inhibitory ability was carried out using human monocytic cell, THP-1 cell (Korean Cell Line Bank) according to conventional method. The COX activity was measured in accordance with Methods in Enzymology 43:9 (1994) published by F. J. Van de Ouderaaa and Muytenhek. THP-1 cell line was cultivated and aliquoted into 24-well plate. The incubation volume per well was adjusted to 500 μl, 2 μl of the sample compound, which dissolved in lipopolysaccahride (1 μg/ml, Sigma) and solvents described in the following Table respectively, was added and cultivated for 24-48 hr under the same condition. After 24-48 hr, calcium ionophore (Sigma) and [1-14C] arachidonic acid 1 μl (in EtOH, 0.1 μCi/ml, Sigma) were added to each well, and cultivated for 10 min under the same condition. Following the cultivation, citric acid was added to each well for adjusting to pH 3.5, shaked, each 500 μl of cultivation solution taken from the plate was aliquoted into micro centrifuge tube, 700 μl of ethylacetate was added to thereto, and the solution was shaking extracted for 10 min. 500 μl of ethylacetate layer was concentrated using speed vacuum dryer for 20 min, 20 μl of the residual was dissolved in ethylacetate, and the resultant was employed with authentic standard in TLC plate. The radioactive band was identified by authentic eicosanoid standards, the radioactivity of the identified band was measured using BAS 2000 bio-imaging analyzer (Fuji, JP) (Table 7).

Interleukin-2 promoter = assay: Interleukin-2 luciferase reporter activity in PHA-activated Jurkat cells; assay type: cell-based, human; details: 24 hr, PHA alone = 100
Experimental: Interleukin-2 promoter was reported to play an important role in the generation of cytokine related to inflammatory. The activity of interleukin-2 luciferase was measured using the following method: Human T lymphocytes cell line, 1×10^6 of Jurkat cell (Korean Cell Line Bank) were aliquoted into each well of 6-wells, IL-2 luciferase reporter plasmid DNA (Stratagene) was transfected using superfect transfection reagent (In vitrogen). 24 hr after transfection, PHA (Phytohemaglutinin, Sigma) (100 ng/ml) was treated to activate Jurkat cell and each samples was treated with varying concentration. Following 24 hr, the cell was collected and the luciferase activity was measured using luminometer (Berthold Technologies GmbH&Co.KG, Germany).

[3] = test system: procollagen type I C-peptide (PICP); assay: Collagen synthesis (procollagen type I C-peptide) in human fibroblasts; assay type: cell-based; details: 24 hr
Experimental: Human fibroblasts (commercially available from pacific) were seeded into a 6-well plate (2×10^5 cells/well) and the well plate was incubated in a 5% CO2 incubator for 24 hr at 37° C. After 24 hr, the medium in each well was removed and cells were incubated with various concentrations of samples for 24 hr. Afterwards, the cell medium was collected and was used as samples. The potential of collagen synthesis was determined by measuring the amount of procollagen type I C-peptide (PICP) in cell medium using Procollagen Type I C-peptide EIA kit (MK101, Takara, Kyoto, Japan) in accordance with manufacturer's protocol.

collagenase = assay: Collagenase activity in human fibroblast medium (Type 1 collagenase assay kit); assay type: cell-based; details: human fibroblasts, 24 hr
Experimental: Human fibroblasts (commercially available from pacific) were seeded into a 6-well plate (2×10^5 cells/well) and the well plate was incubated in a 5% CO2 incubator for 24 hr at 37° C. After 24 hr, the medium in each well was removed and cells were incubated with various concentrations of samples for 24 hr. Afterwards, the cell medium was collected and was used as samples.
For measuring the collagenase activity, antibodies against collagenase was used. The collagenase activity was measured using a Type 1 collagenase assay kit (Amersham Biosciences, RPN2629) and the absorbance values were obtain using an ELISA reader (Bio-Tek ELx808™ Series Ultra Microplate Reader, U.K). The measured average values were represented as mean±standard deviation.

[4] = Obesity inhibition test in ICR male mice (body weight); assay type: in vivo, mouse; details: single forced administration
Experimental: An obesity inhibition test was performed by the following method using well-known laboratory animals. The process for determining obesity-inhibitory activity was as follows: Crj: 7 week-old ICR male mice (obtained from Charles River Japan Ltd) weeks were preliminarily fed for 1 week, then classified into groups each having 7 animals and subjected to the test. The animals were fed under controlled conditions at a temperature of 23±1° C., and a humidity of 55±5% under illumination for 12 hours per day. They were fed with a feed Labo MR (manufactured by Nippon Nosan) and allowed to take water ad libitum. α-Bisabolol was present in the form of liposome (prepared with 5% lecithin) to the final concentration of either 0.1% or 1%. The concentration of each sample solution was adjusted so that 0.1 ml of the solution was given per 10 g body weight of mice. The doses employed were […] and 1 g/kg. To a control group, 5% lecithin emulsion was administered. After fasting the mice, the sample was administered once by force on the next day. During the test period over 2 weeks, the body weight and general conditions were monitored.

B16 mouse melanoma cells [5] = assay: Cytotoxicity at the test concentrations in B16 melanoma cells; assay type: cell-based; details: 1 ppm, 5 ppm and 10 ppm
intracellular tyrosinase = biological target: T1, intracellular tyrosinase (Mus musculus, UniProt P11344); assay: Inhibition of intracellular tyrosinase activity in murine melanoma (B-16 F1) cells; details: B16-F1, read-out: Inhibitory rate of intracellular tyrosinase activity (%)
T1 sequence (P11344 19-533): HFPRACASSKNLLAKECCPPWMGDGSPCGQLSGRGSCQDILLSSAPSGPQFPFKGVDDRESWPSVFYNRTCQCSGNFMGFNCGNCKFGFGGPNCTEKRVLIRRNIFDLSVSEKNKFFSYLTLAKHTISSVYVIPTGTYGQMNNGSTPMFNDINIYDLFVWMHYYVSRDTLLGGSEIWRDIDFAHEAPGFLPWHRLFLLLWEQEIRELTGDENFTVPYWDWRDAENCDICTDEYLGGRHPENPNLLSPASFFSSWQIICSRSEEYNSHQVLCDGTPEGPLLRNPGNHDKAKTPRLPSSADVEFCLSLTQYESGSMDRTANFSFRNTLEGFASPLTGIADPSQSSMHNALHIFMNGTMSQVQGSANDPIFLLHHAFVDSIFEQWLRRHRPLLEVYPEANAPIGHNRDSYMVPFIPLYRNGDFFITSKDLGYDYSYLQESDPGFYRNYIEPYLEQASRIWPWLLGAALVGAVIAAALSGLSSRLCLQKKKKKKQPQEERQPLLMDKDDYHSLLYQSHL
Experimental: After measuring the inhibition of melanin production by α-bisabolol using B16 mouse melanoma cells (Korean Cell Line Bank), the measurement was compared with that for the inhibition of intracellular tyrosinase activities by arbutin, known as a melanin production inhibitor. Murine melanoma (B-16 F1) cells were seeded into each well of a 6-well plate (1×10^5 cells/well) in DMEM containing 10% FBS (fetal bovine serum) and the cells were cultured to about more than 80% adherence by incubating in a CO2 incubator under conditions of 37° C. and 5.0% CO2. After cultivation, the medium was removed and samples were replaced in medium diluted at suitable concentration, followed by incubating for 3 days under conditions of 37° C. and 5.0% CO2. […] The cells removing medium were washed with PBS (phosphate buffer saline) and treated with trypsin to collect cells. The number of the collected cells was calculated using hematocytometer, centrifuged at 5,000 to 10,000 rpm for 10 min and the supernatant was eliminated, thereby obtaining pellets. This cell pellets were lysated using lysis buffer, centrifuged at 12,000 rpm for 10 min and the supernatant was collected. Then, the cell solution was measured for absorbance at 492 nm using microplate reader and the activity of tyrosinase per cell constant number was estimated.

SMILES: CC(C)=CCC[C@](C)(O)C1CC=C(C)CC1 (stereo in doubt) [α-Bisabolol, (2S)-6-methyl-2-[(1R)-4-methyl-1-cyclohex-3-enyl]hept-5-en-2ol]
inhibition at 1 ppm (B16 mouse melanoma cells [1]; 1 ppm): 24% | inhibition at 5 ppm (B16 mouse melanoma cells [1]): 36% | inhibition at 10 ppm (B16 mouse melanoma cells [1]; 10 ppm): 49% | Whitening effects (ΔL) (brown guinea pigs; 0.2 % topical): 0.42 | Whitening effects (ΔL) (brown guinea pigs; 1.0 % topical): 0.67 | Cumulative irritation (brown guinea pigs; topical on brown guinea pig skin for 50 days): no observation of cumulative irritation | Removal rate of superoxide anion (%) ([2]; 1 ppm): 8% | Removal rate of superoxide anion (%) ([2]; 5 ppm): 18% | Removal rate of superoxide anion (%) ([2]; 10 ppm): 34% | COX activities (%) (COX (cyclooxygenase); 1 ppm with LPS (1 μg/ml)): 95% | COX activities (%) (COX (cyclooxygenase); 5 ppm with LPS (1 μg/ml)): 75% | COX activities (%) (COX (cyclooxygenase); 10 ppm with LPS (1 μg/ml)): 67% | IL-2 luciferase activities (Interleukin-2 promoter; 1 ppm with PHA (100 ng/ml)): 92 | IL-2 luciferase activities (Interleukin-2 promoter; 5 ppm with PHA (100 ng/ml)): 72 | IL-2 luciferase activities (Interleukin-2 promoter; 10 ppm with PHA (100 ng/ml)): 58 | Increase of collagen synthesis (%) ([3]; 1 ppm): 23% | Increase of collagen synthesis (%) ([3]; 5 ppm): 43% | Increase of collagen synthesis (%) ([3]; 10 ppm): 76% | Inhibition of collagenase (%) (collagenase; 1 ppm): 12% | Inhibition of collagenase (%) (collagenase; 5 ppm): 28% | Inhibition of collagenase (%) (collagenase; 10 ppm): 43% | Body weight ([4]; 0.1% in liposome, day 5, untreated 24): 24 g | Body weight ([4]; 0.1% in liposome, day 10, untreated 28): 24 g | Body weight ([4]; 0.1% in liposome, day 15, untreated 34): 26 g | Body weight ([4]; 1% in liposome, day 5, untreated 24): 23 g | Body weight ([4]; 1% in liposome, day 10, untreated 28): 24 g | Body weight ([4]; 1% in liposome, day 15, untreated 34): 26 g | Cytotoxicity (B16 mouse melanoma cells [5]): did not show cytotoxicity | inhibition at 1 ppm (intracellular tyrosinase): 13% | inhibition at 5 ppm (intracellular tyrosinase): 38% | inhibition at 10 ppm (intracellular tyrosinase): 58%

inhibition at 5 ppm (intracellular tyrosinase): 45%
SMILES: OC[C@H]1O[C@@H](Oc2ccc(O)cc2)[C@H](O)[C@@H](O)[C@@H]1O [Arbutin, reference compound]
inhibition at 5 ppm (B16 mouse melanoma cells [1]): 22% | Whitening effects (ΔL) (brown guinea pigs; 1.0 % topical): 0.54
